Experimental data as given in patent US8410302B2, “Methoxyimino compounds and fungicide composition comprising same” (Kyung Nong Corporation, priority 2007, dated 2013).
Like-named read-outs stand apart in the source and are kept apart here.

Key:
Phytophthora infestans = experiment: whole plant or invertebrate; format: in vivo; conditions: for pest or weed control at 2 ppm / pest or weed control at 10 ppm / pest or weed control at 50 ppm / pest or weed control at 100 ppm: Phytophthora infestans, in Solanum lycopersicum, read-out: TLB control value (C.V.); for TLB control value (C.V.): tomato late blight
Erysiphae graminis = experiment: Fungicidal activity against barley powdery mildew (BPM) disease, control value; format: in vivo; conditions: for pest or weed control at 2 ppm / pest or weed control at 10 ppm / pest or weed control at 50 ppm / pest or weed control at 100 ppm: 168 h, read-out: BPM control value (C.V.)
Botrytis cinerae = experiment: Fungicidal activity against cucumber gray mold rot (CGM) disease, control value; format: in vivo; conditions: 100 ppm; for pest or weed control at 100 ppm: Botrytis, read-out: CGM control value (C.V.)
[1] = tested on: Pyricularia oryzae Carvara KA301; experiment: whole plant or invertebrate; format: in vivo; conditions: for pest or weed control at 2 ppm / pest or weed control at 10 ppm / pest or weed control at 50 ppm / pest or weed control at 100 ppm: Pyricularia oryzae, read-out: RCB control value (C.V.); for RCB control value (C.V.): rice blast
Puccinia recondita = experiment: Fungicidal activity against wheat leaf rust (WLR) disease, control value; format: in vivo; conditions: for pest or weed control at 2 ppm / pest or weed control at 10 ppm / pest or weed control at 50 ppm / pest or weed control at 100 ppm: read-out: WLR control value (C.V.)
Rhizoctonia solani AG-1 = experiment: Fungicidal activity against rice sheath blight (RSB) disease, control value; conditions: for pest or weed control at 2 ppm / pest or weed control at 10 ppm / pest or weed control at 50 ppm / pest or weed control at 100 ppm: Rhizoctonia solani, AG1, in Oryza sativa, read-out: RSB control value (C.V.); for RSB control value (C.V.): rice sheath blight

## CO/N=C(/C(=O)OC)c1ccccc1COc1cc(C=C(Br)Br)ccc1OC [Example 71, methyl-(E)-2-(2-((5-(2,2-dibromovinyl)-2-methoxyphenoxy)methyl)phenyl)-2-methoxyiminoacetate]
Phytophthora infestans
  pest or weed control at 2 ppm: 70%
  pest or weed control at 10 ppm: 90%
  pest or weed control at 50 ppm: 98%
  pest or weed control at 100 ppm: 100%
Erysiphae graminis; 2 ppm
  pest or weed control at 2 ppm: 95%
Erysiphae graminis; 10 ppm
  pest or weed control at 10 ppm: 100%
Erysiphae graminis; 50 ppm
  pest or weed control at 50 ppm: 100%
Erysiphae graminis; 100 ppm
  pest or weed control at 100 ppm: 100%
Botrytis cinerae
  pest or weed control at 100 ppm: 65%
[1]
  pest or weed control at 2 ppm: 30%
  pest or weed control at 10 ppm: 90%
  pest or weed control at 50 ppm: 100%
  pest or weed control at 100 ppm: 100%
Puccinia recondita; Puccinia recondita, 2 ppm
  pest or weed control at 2 ppm: 95%
Puccinia recondita; Puccinia recondita, 10 ppm
  pest or weed control at 10 ppm: 100%
Puccinia recondita; Puccinia recondita, 50 ppm
  pest or weed control at 50 ppm: 100%
Puccinia recondita; Puccinia recondita, 100 ppm
  pest or weed control at 100 ppm: 100%
Rhizoctonia solani AG-1
  pest or weed control at 2 ppm: 65%
  pest or weed control at 10 ppm: 98%
  pest or weed control at 50 ppm: 100%
  pest or weed control at 100 ppm: 100%

## CNC(=O)/C(=N/OC)c1ccccc1COc1c(C)cccc1C=C(Cl)Cl [Example 50, (E)-2-(2-((2-(2,2-dichlorovinyl)-6-methylphenoxy)methyl)phenyl)-2-methoxyimino-N-methylacetamide]
Phytophthora infestans
  pest or weed control at 2 ppm: 90%
  pest or weed control at 10 ppm: 99%
  pest or weed control at 50 ppm: 100%
  pest or weed control at 100 ppm: 100%
Erysiphae graminis; Hordeum vulgare, 2 ppm, barley powdery mildew
  pest or weed control at 2 ppm: 100%
Erysiphae graminis; Hordeum vulgare, 10 ppm, barley powdery mildew
  pest or weed control at 10 ppm: 100%
Erysiphae graminis; Hordeum vulgare, 50 ppm, barley powdery mildew
  pest or weed control at 50 ppm: 100%
Erysiphae graminis; Hordeum vulgare, 100 ppm, barley powdery mildew
  pest or weed control at 100 ppm: 100%
Botrytis cinerae; cucumber gray mold rot
  pest or weed control at 100 ppm: 20%
[1]
  pest or weed control at 2 ppm: 85%
  pest or weed control at 10 ppm: 98%
  pest or weed control at 50 ppm: 100%
  pest or weed control at 100 ppm: 100%
Puccinia recondita; 2 ppm, wheat leaf rust
  pest or weed control at 2 ppm: 100%
Puccinia recondita; 10 ppm, wheat leaf rust
  pest or weed control at 10 ppm: 100%
Puccinia recondita; 50 ppm, wheat leaf rust
  pest or weed control at 50 ppm: 100%
Puccinia recondita; 100 ppm, wheat leaf rust
  pest or weed control at 100 ppm: 100%
Rhizoctonia solani AG-1
  pest or weed control at 2 ppm: 95%
  pest or weed control at 10 ppm: 98%
  pest or weed control at 50 ppm: 100%
  pest or weed control at 100 ppm: 100%

## CNC(=O)/C(=N/OC)c1ccccc1CON=C(C)c1ccc(C=C(Cl)Cl)cc1 [Example 22, (E)-2-[[[[[2-[4-(2,2-dichlorovinyl)phenyl](1-methyl)methylidene]amino]oxy]methyl]phenyl]-2-methoxyimino-N-methylacetamide]
Phytophthora infestans; 2 ppm
  TLB control value (C.V.): 90%
Phytophthora infestans; 10 ppm
  TLB control value (C.V.): 100%
Phytophthora infestans; 50 ppm
  TLB control value (C.V.): 100%
Phytophthora infestans; 100 ppm
  TLB control value (C.V.): 100%
Erysiphae graminis; 2 ppm, barley powdery mildew
  BPM control value (C.V.): 98%
Erysiphae graminis; 10 ppm, barley powdery mildew
  BPM control value (C.V.): 100%
Erysiphae graminis; 50 ppm, barley powdery mildew
  BPM control value (C.V.): 100%
Erysiphae graminis; 100 ppm, barley powdery mildew
  BPM control value (C.V.): 100%
Botrytis cinerae; cucumber gray mold rot
  CGM control value (C.V.): 45%
[1]; 2 ppm
  RCB control value (C.V.): 100%
[1]; 10 ppm
  RCB control value (C.V.): 100%
[1]; 50 ppm
  RCB control value (C.V.): 100%
[1]; 100 ppm
  RCB control value (C.V.): 100%
Puccinia recondita; 2 ppm, wheat leaf rust
  WLR control value (C.V.): 100%
Puccinia recondita; 10 ppm, wheat leaf rust
  WLR control value (C.V.): 100%
Puccinia recondita; 50 ppm, wheat leaf rust
  WLR control value (C.V.): 100%
Puccinia recondita; 100 ppm, wheat leaf rust
  WLR control value (C.V.): 100%
Rhizoctonia solani AG-1; 2 ppm
  RSB control value (C.V.): 90%
Rhizoctonia solani AG-1; 10 ppm
  RSB control value (C.V.): 98%
Rhizoctonia solani AG-1; 50 ppm
  RSB control value (C.V.): 100%
Rhizoctonia solani AG-1; 100 ppm
  RSB control value (C.V.): 100%

## CNC(=O)/C(=N/OC)c1ccccc1CON=C(C)c1cccc(C=C(F)Cl)c1 [Example 32, (E)-2-[[[[[2-[3-(2-chloro-2-fluorovinyl)phenyl](1-methyl)methylidene]amino]oxy]methyl]phenyl]-2-methoxyimino-N-methylacetamide]
Phytophthora infestans; 50 ppm
  TLB control value (C.V.): 55%
Phytophthora infestans; 100 ppm
  TLB control value (C.V.): 93%
Erysiphae graminis; 100 ppm, barley powdery mildew
  BPM control value (C.V.): 80%
Botrytis cinerae; cucumber gray mold rot
  CGM control value (C.V.): 34%
[1]; 50 ppm
  RCB control value (C.V.): 90%
[1]; 100 ppm
  RCB control value (C.V.): 97%
Puccinia recondita; 100 ppm, wheat leaf rust
  WLR control value (C.V.): 82%
Rhizoctonia solani AG-1; 100 ppm
  RSB control value (C.V.): 65%

## CNC(=O)/C(=N/OC)c1ccccc1CON=C(C)c1ccc(C=C(F)Cl)cc1 [Example 34, (E)-2-[[[[[2-[4-(2-chloro-2-fluorovinyl)phenyl](1-methyl)methylidene]amino]oxy]methyl]phenyl]-2-methoxyimino-N-methylacetamide]
Phytophthora infestans; 50 ppm
  TLB control value (C.V.): 35%
Phytophthora infestans; 100 ppm
  TLB control value (C.V.): 98%
Erysiphae graminis; 100 ppm, barley powdery mildew
  BPM control value (C.V.): 60%
Botrytis cinerae; cucumber gray mold rot
  CGM control value (C.V.): 40%
[1]; 50 ppm
  RCB control value (C.V.): 90%
[1]; 100 ppm
  RCB control value (C.V.): 95%
Puccinia recondita; 100 ppm, wheat leaf rust
  WLR control value (C.V.): 72%
Rhizoctonia solani AG-1; 100 ppm
  RSB control value (C.V.): 15%
